System: circulating tumor cells (CTC) from patients with CRPC
Assay: Enzalutamide resistance of patient CTCs assigned to PCS subtypes by the 37-gene classifier
Format: in vivo, human
Conditions: for Enzalutamide resistance / Enzalutamide resistance: proportion of CTCs from patients with enzalutamide-resistant tumors: patient CTCs
Description: A random forest machine learning algorithm was employed to develop a diagnostic gene panel. For parameter estimation and training the model, we used the merged dataset. Initially, the model comprised of the 428 SEGs as a set of predictors and subtype label of the merged dataset was used as a response variable for model training. […] We then permuted the values for each gene across every sample and measured how much worse MSE became after the permutation. […] We analyzed single-cell RNA-seq data from 77 intact CTCs isolated from 13 patients (Miyamoto D T, Zheng […], Lee R J, Zhu H, Broderick K T, et al. RNA-Seq of single prostate CTCs implicates noncanonical Wnt signaling in antiandrogen resistance. Science 2015; 349:1351-6). Prior to the clustering analysis to investigate the expression patterns of these CTC data, the normalized read counts as read-per-million (RPM) mapped reads were transformed on a log 2 scale for each gene.

`CNC(=O)c1ccc(N2C(=S)N(c3ccc(C#N)c(C(F)(F)F)c3)C(=O)C2(C)C)cc1F` [Enzalutamide, enzalutamide] was tested, and the “OR for CTCs from patients with radiographic and/or PSA progression during enzalutamide therapy” value (GROUP II CTCs (high expression of PCS1-enriched genes), 5 of the 7 CTCs, 95% confidence interval 0.49-6.06) was 1.74, the Enzalutamide resistance (PCS1 subtype) was “Yes” and the “Enzalutamide resistance: proportion of CTCs from patients with enzalutamide-resistant tumors” value (PCS1 subtype (7 CTCs out of 12)) was 58%. For the same compound, the Enzalutamide resistance (PCS2 subtype) was “No” and the “Enzalutamide resistance: proportion of CTCs from patients with enzalutamide-resistant tumors” value (PCS2 subtype (5 CTCs out of 65)) was 8%.

Source: patent US11174518B2, “Method of classifying and diagnosing cancer” (Cedars-Sinai Medical Center, priority 2015, dated 2021)
